Article PMC9495854, “Novel Phenothiazine/Donepezil-like Hybrids Endowed with Antioxidant Activity for a Multi-Target Approach to the Therapy of Alzheimer’s Disease” (Antioxidants, 2022)

Columns and labels:
SH-SY5Y cells = assay: DCFH-DA cell-based antioxidant assay (H2O2-induced oxidation), SH-SY5Y; details: Homo sapiens, SHSY-5Y, 1 h compound, 100 μM H2O2, read-out: DCFDH-DA IC50 ± SEM SHSY-5Y
Protocol: HepG2 cells were cultured in Eagle’s Minimum Essential Medium (MEM, Euroclone S.p.A., Pero, MI, Italy), supplemented with 10% Fetal Bovine Serum (FBS, Euroclone S.p.A., Pero, MI, Italy), 1% L-glutamine (Euroclone S.p.A., Pero, MI, Italy), 100 U/mL penicillin/streptomycin (Euroclone S.p.A., Pero, MI, Italy), 1% Non-Essential Amino Acids (NEAA, Euroclone S.p.A., Pero, MI, Italy). SH-SY5Y cells were grown in a 1:1 mixture of Dulbecco’s modified Eagle’s medium (DMEM)—high glucose (Euroclone S.p.A., Pero, MI, Italy) and Ham’s F12 Medium (Euroclone S.p.A., Pero, MI, Italy) supplemented with 10% FBS, 1% L-glutamine and 100 U/mL penicillin/streptomycin. For cell assays, cells were trypsinized using Trypsin-EDTA 1X in PBS (Euroclone S.p.A., Pero, MI, Italy).
According to a slightly modified procedure already reported in the literature, the generation of ROS was determined using an oxidation-sensitive fluorescent probe, 2′,7′-dichlorodihydrofluorescein diacetate (DCFH-DA, D6665; Sigma-Aldrich, St. Louis, MO, USA). Briefly, viable cells were seeded in a black 96-well cell culture plate (Costar, Sigma-Aldrich, St. Louis, MO, USA) and after 24 h were incubated with different concentrations (0.1–100 µM) of each compound for 1 h at 37 °C in 5% CO2. […] After washing using PBS, 100 μM H2O2 in medium without serum was added to each well and the cells were incubated for an additional 30 min. The formation of fluorescent dichlorofluorescein (DCF) due to oxidation of DCFH in the presence of ROS, was read at 530 nm using a microplate reader Tecan Infinite M1000 Pro (Tecan, Cernusco S.N., Italy) and DMSO medium was used for control cells. The results are expressed as mean ± SEM of at least three independent measurements in triplicate.

FAAH Human recombinant = target: T1, FAAH Human recombinant (Homo sapiens, UniProt O00519); assay: FAAH inhibition, fluorometric assay; type: biochemical; details: mean ± SEM; read-out: hFAAH (IC50)
T1 construct: purchased Cayman Chemical
T1 sequence (O00519 1-579): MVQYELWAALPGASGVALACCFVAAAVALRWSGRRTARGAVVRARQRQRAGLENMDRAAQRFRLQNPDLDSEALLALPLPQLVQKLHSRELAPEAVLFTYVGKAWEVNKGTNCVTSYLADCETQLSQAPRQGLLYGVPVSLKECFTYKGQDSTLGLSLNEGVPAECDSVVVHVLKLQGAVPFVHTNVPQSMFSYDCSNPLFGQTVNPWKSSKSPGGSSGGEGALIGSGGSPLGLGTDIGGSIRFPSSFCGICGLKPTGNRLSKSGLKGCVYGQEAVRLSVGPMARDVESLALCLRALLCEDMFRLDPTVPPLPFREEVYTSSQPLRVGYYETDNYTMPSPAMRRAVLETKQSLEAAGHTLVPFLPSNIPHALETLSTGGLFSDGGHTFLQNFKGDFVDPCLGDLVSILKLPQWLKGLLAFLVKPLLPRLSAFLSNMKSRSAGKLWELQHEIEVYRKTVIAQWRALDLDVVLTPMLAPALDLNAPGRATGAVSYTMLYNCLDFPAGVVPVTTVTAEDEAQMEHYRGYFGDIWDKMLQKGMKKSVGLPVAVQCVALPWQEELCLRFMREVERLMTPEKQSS
Protocol: The fatty acid amide hydrolase inhibition was measured for the final compounds using 96-well black flat-bottom microtiter NBS plates (COSTAR flat black). The total volume was 150 µL: the single hybrid was pre-incubated at different concentrations with the enzyme (FAAH Human recombinant, Cayman Chemical, Ann Arbor, MI, USA) in the specific fluorometric assay buffer (tris-HCl 125 mM, Na2EDTA · 2H2O 1 mM, pH = 9.0) for ten minutes at RT, using an orbital shaker. A 50 μL solution of the substrate (7-amino-4-methyl-2H-1-benzopyran-2-one-5Z,8Z,11Z,14Z-eicosatetraen-amide, at a final concentration of 5 µM) was then added. The plates were then incubated for 1 h at 37 °C in a Tecan Infinite M1000 Pro (Tecan, Cernusco S.N., Italy), reading fluorescence values from each well every 30s (λex = 340 nm, λem = 450 nm). The inhibitor activity was expressed as relative fluorescence units (RFU), using the values obtained from control wells lacking the inhibitor and blank wells lacking both inhibitor and enzyme to calculate percent inhibition values for each well. IC50 values are expressed as mean ± SEM of at least two independent measurements performed in triplicate.

Aβ1-40 aggregation = target: T2, Aβ1-40 aggregation (Homo sapiens, UniProt P05067); assay: Inhibition of Aβ40 aggregation, ThT fluorescence; type: biochemical; details: inhibitor 10 µM, Aβ40 30 µM, PBS pH 7.4, 2% HFIP, 2 h 25 °C; mean ± SEM
T2 construct: purchased EZBiolab
Protocol: ThT fluorescence in the presence of Aβ was measured for each compound according a previously described procedure. The samples were co-incubated and mixed in 96-well black, non-binding microplates (Greiner Bio-One GmbH, Frickenhausen, Germany), incubating Aβ40 (EZBiolab, Carmel, IN, USA) at a final concentration of 30 µM with each inhibitors at a final concentration of 10 µM in PBS (pH 7.4) containing 2% 1,1,1,3,3,3-hexafluoro-2-propanol (HFIP). After 2 h at 25 °C, a 25 µM ThT solution was added and fluorescence was determined using the multi-plate reader Tecan Infinite M1000 Pro (Tecan, Cernusco S.N., Italy). The results are reported as mean of three independent experiments ± SEM [13].

[1] = DPPH radical scavenging assay; details: DPPH 100 µM in methanol, 30 min
Protocol: A previously reported method (Blois) with some modifications (Mishra, Ojha, & Chaudhury, 2012) was used to carry out the DPPH assay in 96-well microtiter plates. Each tested compound was dissolved in methanol, after which a freshly prepared solution of DPPH in methanol (100 µM final concentration) was added. Following vigorous stirring, each mixture was left in the dark for 30 min at room temperature, after which absorbance values for each well were read at 520 nm using a spectrophotometric plate reader (VICTOR^3 V multilabel plate reader, PerkinElmer). Antioxidant activity was determined as RSA% (radical scavenging activity). The value was calculated using following equation: RSA% = 100 × [(Ao − Ai)/Ao], where Ao and Ai represent DPPH absorbance in absence or in presence of antioxidant, respectively. Antiradical curves for calculating the EC50 values were obtained by testing each compound at several concentrations. Values of all parameters are expressed as mean ± SEM of at least three independent measurements in triplicate.

T2 sequence (P05067 672-711 limits assumed): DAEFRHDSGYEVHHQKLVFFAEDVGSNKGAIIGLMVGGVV

## O=c1c(O)c(-c2ccc(O)c(O)c2)oc2cc(O)cc(O)c12 [Quercetin, reference compound]
SH-SY5Y cells
  IC50: 5.61 ± 0.4 µM

## O=C(Oc1ccc([N+](=O)[O-])cc1)N1CCN(Cc2cccc(Oc3ccccc3)c2)CC1 [JZL195, reference compound]
FAAH Human recombinant
  IC50: 0.019 ± 0.003 µM

## COc1cc2c(cc1OC)C(=O)C(CC1CCN(Cc3ccccc3)CC1)C2 (centres unmarked) [Donepezil]
Aβ1-40 aggregation
  Aβ1-40 Aggregation (I% at 10 µM): 14% ± 7

## O=C(O)c1cc(O)c(O)c(O)c1 [Gallic acid, reference compound]
[1]
  EC50 (μmol/μmol of DPPH ± SEM): 0.059 ± 0.003 μmol/μmol of DPPH
[1]; listed as gallic acid
  EC50 (μmol/μmol of DPPH ± SEM): 0.059 μmol/μmol of DPPH
